Assay results taken from US4684624A (priority 1985, dated 1987).

How the values were obtained:
[1] = test system: neurologic deficits secondary to cerebral ischemia; conditions: man; cited from earlier work
[2] = test system: acute focal cerebral ischemia (MCA occlusion); set-up: species or system cat; conditions: in vivo; for lived up to 7 days / mortality, 24-28 hours / mortality, 48-72 hours / mortality, less than 24 hours: ip
[3] = test system: ischemic neurologic deficit; conditions: cited from earlier work
analgesic response = conditions: mice; cited from earlier work

Compound	effect on neurologic deficits secondary to cerebral ischemia [1]	effect in prolonging survival [2]	lived up to 7 days [2]	mortality, 24-28 hours [2]	mortality, 48-72 hours [2]	mortality, less than 24 hours [2]	survival and neurologic function in several models of stroke ([3]; gerbils (Holaday and D'Amato))	neurologic function and infarct size after temporary carotid occlusion ([3]; gerbils (Levy et al.))	neurologic deficits produced by unilateral carotid ligation ([3]; gerbils, intraperitoneal (Hosobuchi et al.))	analgesic potency (analgesic response)
C=CCN1CC[C@]23c4c5ccc(O)c4O[C@H]2C(=O)CC[C@@]3(O)[C@H]1C5 [Naloxone, 17-allyl-4-5α-epoxy-3,14-dihydroxymorphinan-6-one]	can reverse neurologic deficits	prolonged survival	31%	15%	0%	54%	no beneficial effect	did not produce improved neurologic function or alter infarct size	can be reversed	–
O=C1CC[C@@]2(O)[C@H]3Cc4ccc(O)c5c4[C@@]2(CCN3CC2CC2)[C@H]1O5 [Naltrexone]	–	prolonged survival	40%	10%	10%	40%	–	–	–	–
CN1CC[C@]23c4c5ccc(O)c4O[C@H]2[C@@H](O)C=C[C@H]3[C@H]1C5 [morphine]	exacerbates them	–	–	–	–	–	–	–	–	–
Dynorphin	–	–	–	–	–	–	–	–	–	little or no analgesic potency
